Values quoted from earlier work in PMC3426641 (Biochemistry, 2012).

Biological target: T1, Eis_Mtb (Mycobacterium tuberculosis, UniProt P9WFK7)
Conditions: cited from earlier work

T1 sequence (P9WFK7 whole entry): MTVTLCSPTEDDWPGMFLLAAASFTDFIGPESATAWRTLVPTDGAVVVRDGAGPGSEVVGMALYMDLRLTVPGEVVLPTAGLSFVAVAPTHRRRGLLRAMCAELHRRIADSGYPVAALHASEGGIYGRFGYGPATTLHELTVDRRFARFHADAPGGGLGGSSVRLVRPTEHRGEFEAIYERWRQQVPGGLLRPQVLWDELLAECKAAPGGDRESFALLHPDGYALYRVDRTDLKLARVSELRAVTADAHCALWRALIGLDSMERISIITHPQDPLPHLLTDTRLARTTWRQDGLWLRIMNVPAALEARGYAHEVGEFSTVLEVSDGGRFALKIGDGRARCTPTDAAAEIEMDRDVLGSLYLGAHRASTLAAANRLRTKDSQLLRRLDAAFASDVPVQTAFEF

Q: With kanamycin A as the compound, how does the “level of acetylation by Eis from M. tuberculosis” value (from here on “level of acetylation by Eis”) read?
A: di-acetylated

Same assay, conditions: number of acetylations per AG; previously reported; cited from earlier work

Q: Which “level of acetylation by Eis” value does the source give for CCN[C@@H]1C[C@H](N)[C@@H](O[C@H]2OC(CN)=CC[C@H]2N)[C@H](O)[C@H]1O[C@H]1OC[C@](C)(O)[C@H](NC)[C@H]1O [NET, netilmicin] here?
A: di-acetylated

Q: Which “level of acetylation by Eis” value does the source give for NC[C@@H]1O[C@H](O[C@H]2[C@@H](O)[C@H](O[C@@H]3[C@@H](O)[C@H](N)C[C@H](N)[C@H]3O[C@H]3O[C@H](CO)[C@@H](O)[C@H](O)[C@H]3N)O[C@@H]2CO)[C@H](N)[C@@H](O)[C@@H]1O [PAR, paromomycin] here?
A: di-acetylated

Q: For NC[C@@H]1O[C@H](O[C@H]2[C@@H](O)[C@H](O[C@@H]3[C@@H](O)[C@H](N)C[C@H](N)[C@H]3O[C@H]3O[C@H](CN)[C@@H](O)[C@H](O)[C@H]3N)O[C@@H]2CO)[C@H](N)[C@@H](O)[C@@H]1O [NEO, neomycin B], which “level of acetylation by Eis” value is on record?
A: tri-acetylated

Q: With CN[C@@H]1[C@H](O)[C@H](NC)[C@H]2O[C@@]3(O)C(=O)C[C@@H](C)O[C@H]3O[C@@H]2[C@H]1O [SPT, spectinomycin] as the compound, how does the “level of acetylation by Eis” value read?
A: not modified

Q: For CN[C@@H]1[C@@H](O)[C@@H](O[C@@H]2[C@@H](O)[C@H](O[C@H]3OC(CN)=CC[C@H]3N)[C@@H](N)C[C@H]2N)OC[C@]1(C)O [SIS, sisomicin], which “level of acetylation by Eis” value is on record?
A: tri-acetylated

Q: Which “level of acetylation by Eis” value does the source give for [H]/N=C(/N)N[C@H]1[C@H](O)[C@@H](O)[C@H](O[C@@H]2O[C@@H](C)[C@](O)(C=O)[C@H]2O[C@@H]2O[C@@H](CO)[C@H](O)[C@@H](O)[C@@H]2NC)[C@@H](N/C(N)=N\[H])[C@@H]1O [STR, streptomycin] here?
A: not modified

Q: Which “level of acetylation by Eis” value does the source give for NC[C@H]1O[C@H](O[C@H]2[C@H](O)[C@@H](O)[C@H](N)C[C@@H]2N)[C@H](N)[C@@H](O)[C@@H]1O [NEA, neamine] here?
A: tri-acetylated

Q: For CN[C@@H]1C[C@H](N)[C@@H](O)[C@H](O[C@H]2O[C@H](CO)[C@H](O)[C@@H]3O[C@@]4(O[C@@H]23)O[C@H]([C@H](N)CO)[C@H](O)[C@H](O)[C@H]4O)[C@H]1O [HYG, hygromycin], which “level of acetylation by Eis” value is on record?
A: di-acetylated

Q: For NCC[C@H](O)C(=O)N[C@@H]1C[C@H](N)[C@@H](O[C@H]2O[C@H](CN)[C@@H](O)[C@H](O)[C@H]2O)[C@H](O)[C@H]1O[C@H]1O[C@H](CO)[C@@H](O)[C@H](N)[C@H]1O [AMK, amikacin], which “level of acetylation by Eis” value is on record?
A: tri-acetylated

Q: Which “level of acetylation by Eis” value does the source give for CN[C@@H]1[C@@H](O[C@H]2O[C@H](CO)[C@@H](N)[C@H](O)[C@H]2O)OC2C[C@@H](N)[C@@H](O[C@H]3[C@H](O)[C@@H](O)[C@H](N)C[C@@H]3N)OC2[C@@H]1O (some centres unmarked) [APR, apramycin] here?
A: could not chemically modify

Q: With NC[C@H]1O[C@H](O[C@H]2[C@H](O[C@@H]3O[C@H](CO)[C@@H](O)[C@H]3O)[C@@H](O)[C@H](N)C[C@@H]2N)[C@H](N)[C@@H](O)[C@@H]1O [RIB, ribostamycin] as the compound, how does the “level of acetylation by Eis” value read?
A: tri-acetylated

Q: Which “level of acetylation by Eis” value does the source give for NC[C@H]1O[C@H](O[C@H]2[C@H](O)[C@@H](O[C@H]3O[C@H](CO)[C@@H](O)[C@H](N)[C@H]3O)[C@H](N)C[C@@H]2N)[C@H](N)C[C@@H]1O [TOB, tobramycin] here?
A: tetra-acetylated

Biological target: T1, Eis_Mtb
Conditions: TLC and NMR spectroscopy; cited from earlier work

Q: With NC[C@H]1O[C@H](O[C@H]2[C@H](O)[C@@H](O)[C@H](N)C[C@@H]2N)[C@H](N)[C@@H](O)[C@@H]1O [NEA, neamine] as the compound, how does the “positions acetylated (regio-specificity)” value read?
A: first at the 2′-, then at the 6′-, and finally at the 1-position
